The target in assay [1] is full length USP7 (Homo sapiens (Human), UniProt Q93009). Put plainly: Ub-AMC enzymatic assay with full-length USP7. Type of assay: biochemical. The settings on record: for IC50: 6 hours pre-incubation, Ub-AMC. As for the experimental part:
Both constructs were overexpressed in E. coli BL21 (DE3). Cells were grown at 37° C. to an OD of 0.9, cooled to 16° C., induced with 500 μM isopropyl-1-thio-D-galactopyranoside (IPTG), incubated overnight at 16° C., collected by centrifugation, and stored at −80° C. Cell pellets were sonicated in lysis buffer (25 mM Tris pH 8, 1 M NaCl, and 10 mM BME) supplemented with 10 μg/ml phenylmethanesulfonylfluoride (PMSF) and the resulting lysate was centrifuged at 30,000×g for 40 min. Ni-NTA beads (Qiagen) were mixed with lysate supernatant for 2 hours, and washed with lysis buffer supplemented with 25 mM imidazole. The bound protein was eluted with lysis buffer supplemented with 300 mM imidazole. The sample was then concentrated to 1 ml (30 kDa concentrator; Amicon Ultra, Millipore), and run on a Superdex 200 (GE healthcare) in buffer containing 25 mM HEPES pH 7.5, 200 mM NaCl, and 1 mM DTT. Fractions were pooled, concentrated and frozen at −80° C.
Full length USP7 was tested for its activity in Ubiquitin-AMC assay in presence or absence of inhibitors. USP7 (5 nM) was pre-incubated for 6 hours at room temperature with different concentrations of inhibitors or DMSO as a control in 50 mM HEPES pH 7.5, 0.5 mM EDTA, 11 μM ovalbumin, and 5 mM DTT. Ubiquitin-AMC (Boston Biochem) was then added to a final concentration of 500 nM. The initial rate of the reaction was measured by collecting fluorescence data at one minute intervals over 30-minute period using a Clariostar fluorescence plate reader at excitation and emission wavelength of 345 and 445 nm respectively. The calculated initial rate values were plotted against inhibitor concentrations to determine IC50s. All the experimental data were plotted using Prism GraphPad. All assays for each compound were performed at least twice for each compound.

The test system of assay [2] is Ewing sarcoma cell lines, TP53 WT and mutant. In words: Cell proliferation (CellTiter-Glo), panel of Ewing sarcoma cell lines. Type of assay: cell-based. The conditions noted are these: same set of cell lines. As for the experimental part:
Cells were plated in 384-well culture-treated plates and allowed to settle overnight. After drug treatment and appropriate incubation time, cell viability was assessed using the CellTiter-Glo Luminescent Cell Viability Assay (Promega). Luminescence was read on a Fluostar Omega Reader (BMG Labtech).
On the technique in general: ATP-based viability assays read luminescence as a measure of living cells.

The test system of assay [3] is MCF7 cells. Put plainly: Drug synergy analysis (Chou-Talalay combination index), MCF7. Type of assay: cell-based. From the text: Loewe Additivity is a dose-effect approach that estimates the effect of combining two drugs based on the concentration of each individual drug that produces the same quantitative effect (Goldoni and Johansson, 2007). […] They introduced the combination index (CI) scores to estimate the interaction between the two drugs. If CI<1, the drugs have a synergistic effect, and if CI>1, the drugs have an antagonistic effect. CI=1 means the drugs have an additive effect.

Assay [4] has as its system TC32 cells. In words: Drug synergy analysis (Chou-Talalay combination index), TC32. The class given is cell-based. From the text: Loewe Additivity is a dose-effect approach that estimates the effect of combining two drugs based on the concentration of each individual drug that produces the same quantitative effect (Goldoni and Johansson, 2007). […] They introduced the combination index (CI) scores to estimate the interaction between the two drugs.

Assay [5] concerns the target USP7 catalytic domain (Homo sapiens (Human), UniProt Q93009). Put plainly: MS labeling of purified USP7 catalytic domain (intact MS, CE-MS). The class given is binding. The conditions noted are these: 15 minutes incubation. On the procedure:
Purified USP7 catalytic domain was diluted to 20 μM in 10 μL labeling buffer (20 mM HEPES pH 7.5, 150 mM NaCl, 1 mM TCEP) and incubated for the indicated times with 50 μM (2.5×) compound. After incubation, samples were flash frozen in liquid nitrogen and stored at −80° C. until analysis.
Intact mass analysis was performed by injecting 5 μg USP7 catalytic domain onto a self-packed reversed phase column ( 1/32″ O.D.×500 um I.D., 5 cm of POROS 10R2 resin). After desalting, protein was eluted with an HPLC gradient (0-100% B in 4 minutes, A=0.2M acetic acid in water, B=0.2 M acetic acid in acetonitrile, flow rate ˜30 μL/min) into an LTQ ion trap mass spectrometer (ThermoFisher Scientific, San Jose, CA). Mass spectra were deconvoluted using MagTran1.03b2 software. Zhang, Z. & Marshall, A. G. A universal algorithm for fast and automated charge state deconvolution of electrospray mass-to-charge ratio spectra. J. Am. Soc. Mass Spectrom. 9, 225-233 (1998).
To identify sites of covalent modification, treated protein was reduced (10 mM dithiothreitol), alkylated (22.5 mM iodoacetamide), and digested with trypsin overnight at 37° C. Peptides were desalted using SP3 (Hughes, C. S. et al. Ultrasensitive proteome analysis using paramagnetic bead technology. Mol. Syst. Biol. 10, 757-757 (2014)), dried by vacuum centrifugation, and reconstituted in 1% formic acid/50% acetonitrile with 100 mM ammonium acetate. Peptides were then analyzed by CE-MS using a ZipChip CE system and autosampler (908 Devices, Boston, MA) interfaced to a QExactive HF mass spectrometer (ThermoFisher Scientific, San Jose, CA). Peptide solution was loaded for 30 seconds, and the mass spectrometer was operated in data dependent mode and subjected the 5 most abundant ions in each MS scan (60 k resolution, 3E6 target, lock mass enabled) to MS/MS (15 k resolution, 1E5 target, 100 ms max inject time). Dynamic exclusion was enabled with a repeat count of 1 and an exclusion time of 6 seconds. […]

[6] abbreviates: Table 3, read-out: IC50 (μM), USP7 activity in USP7 assay.
Where [7] appears, read: Table 1, read-out: IC50 (nM), USP7 activity in USP7 assay.

Structures are written as SMILES. Read-outs that look alike come from different tables or passages of the source. Some results are limits rather than exact numbers.

Here are results for 19 compounds from patent publication US12503453B2, “USP7 inhibition” (Dana-Farber Cancer Institute, Inc., priority 2018, dated 2025).

Sequence of full length USP7 (Q93009 whole entry): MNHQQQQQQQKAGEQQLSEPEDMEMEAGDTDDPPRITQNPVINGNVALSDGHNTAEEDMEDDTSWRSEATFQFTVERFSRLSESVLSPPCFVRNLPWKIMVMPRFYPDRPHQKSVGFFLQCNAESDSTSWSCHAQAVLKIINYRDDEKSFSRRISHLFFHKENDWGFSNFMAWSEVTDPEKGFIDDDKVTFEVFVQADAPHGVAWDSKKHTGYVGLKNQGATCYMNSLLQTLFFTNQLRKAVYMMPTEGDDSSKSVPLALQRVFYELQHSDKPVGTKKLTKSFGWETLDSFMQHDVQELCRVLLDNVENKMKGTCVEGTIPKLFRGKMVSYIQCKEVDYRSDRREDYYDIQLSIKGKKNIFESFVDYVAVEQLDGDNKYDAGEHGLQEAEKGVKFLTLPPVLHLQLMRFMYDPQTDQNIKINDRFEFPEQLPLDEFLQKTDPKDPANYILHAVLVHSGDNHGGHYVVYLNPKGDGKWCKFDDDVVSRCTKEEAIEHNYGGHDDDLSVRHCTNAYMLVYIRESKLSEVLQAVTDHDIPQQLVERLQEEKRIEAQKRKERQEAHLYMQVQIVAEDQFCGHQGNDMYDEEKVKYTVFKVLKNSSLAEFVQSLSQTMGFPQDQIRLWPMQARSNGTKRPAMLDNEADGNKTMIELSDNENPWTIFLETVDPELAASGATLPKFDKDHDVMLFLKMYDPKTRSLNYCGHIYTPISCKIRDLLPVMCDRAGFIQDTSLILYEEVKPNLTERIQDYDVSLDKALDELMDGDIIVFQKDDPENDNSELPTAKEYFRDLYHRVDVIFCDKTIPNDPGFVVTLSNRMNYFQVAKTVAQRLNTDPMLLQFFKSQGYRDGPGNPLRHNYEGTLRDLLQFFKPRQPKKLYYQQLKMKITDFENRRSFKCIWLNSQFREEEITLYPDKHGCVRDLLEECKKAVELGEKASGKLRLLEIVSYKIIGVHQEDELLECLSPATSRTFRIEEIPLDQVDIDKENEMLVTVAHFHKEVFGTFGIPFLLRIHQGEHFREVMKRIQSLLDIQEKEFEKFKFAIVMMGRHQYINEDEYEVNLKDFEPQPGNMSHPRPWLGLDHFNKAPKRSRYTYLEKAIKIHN
Sequence of USP7 catalytic domain (Q93009 208-560): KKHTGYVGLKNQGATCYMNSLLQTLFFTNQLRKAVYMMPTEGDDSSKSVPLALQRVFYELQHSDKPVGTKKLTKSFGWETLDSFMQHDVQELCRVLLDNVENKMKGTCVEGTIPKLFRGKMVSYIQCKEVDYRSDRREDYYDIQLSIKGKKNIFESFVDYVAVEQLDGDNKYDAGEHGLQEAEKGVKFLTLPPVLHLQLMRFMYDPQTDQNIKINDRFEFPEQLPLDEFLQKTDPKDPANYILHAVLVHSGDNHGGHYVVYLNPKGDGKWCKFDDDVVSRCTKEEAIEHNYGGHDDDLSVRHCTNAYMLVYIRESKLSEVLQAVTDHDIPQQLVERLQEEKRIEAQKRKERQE

In general, IC50 refers to the point on the concentration scale where inhibition reaches its midpoint. For `O=C(CCN1CCOCC1)Nc1ccc2c(=O)n(CC3(O)CCN(C(=O)[C@H](Cc4ccccc4)NC(=O)COc4ccc5c(Cl)c6c(nc5c4)CCCC6)CC3)cnc2c1`, the 50% inhibitory concentration (IC50) in assay [1] (setting [6]) lay within 0.1 to 1 µM.

In the case of `CN1CCN(CCC(=O)Nc2ccc3c(=O)n(CC4(O)CCN(C(=O)C(CCCNC(=O)c5ccc6c(Cl)cc(-c7ccccc7)nc6c5)Cc5ccccc5)CC4)cnc3c2)CC1` (stereo not shown), the half-inhibitory concentration (IC50) in assay [1] (setting [6]) lay within 0.1 to 1 µM.

In the case of `CN1CCN(CCC(=O)Nc2ccc3c(=O)n(CC4(O)CCN(C(=O)C(CCCNC(=O)c5ccc6c(Cl)c7c(nc6c5)CCCC7)c5ccccc5)CC4)cnc3c2)CC1` (stereo not shown), the IC50 in assay [1] (setting [6]) is over 1 µM.

Turning to `COc1cccc(CC(CCCNC(=O)c2ccc3c(Cl)c4c(nc3c2)CCCC4)C(=O)N2CCC(O)(Cn3cnc4cc(NC(=O)CCN5CCN(C)CC5)ccc4c3=O)CC2)c1` (stereo not shown), in assay [1] (setting [6]), the IC50 was over 1 µM.

With `O=C(CCN1CCOCC1)Nc1ccc2c(=O)n(CC3(O)CCN(C(=O)C(CCCNC(=O)c4ccc5c(Cl)c6c(nc5c4)CCCC6)Cc4ccc(F)c(C(F)(F)F)c4)CC3)cnc2c1` (stereo not shown), in assay [1] (setting [6]), the IC50 was in the range of 0.02 to 0.1 µM.

Consider `O=C(CCN1CCOCC1)Nc1ccc2c(=O)n(CC3(O)CCN(C(=O)C(CCCNC(=O)c4ccc5c(Cl)c6c(nc5c4)CCCC6)Cc4ccc(F)cc4F)CC3)cnc2c1` (stereo not shown), for which the IC50 in assay [1] (setting [6]) was in the range of 0.02 to 0.1 µM.

`CN1CCN(c2cccc3c(=O)n(CC4(O)CCN(C(=O)[C@@H](CCCNC(=O)c5ccc6c(Cl)c7c(nc6c5)CCCC7)Cc5ccccc5)CC4)cnc23)CC1`: in assay [1] (setting [6]), the IC50 fell in the range of 0.02 to 0.1 µM.

For the compound `O=C(NCCC[C@@H](Cc1ccccc1)C(=O)N1CCC(O)(Cn2cnc3c(N4CCOCC4)cccc3c2=O)CC1)c1ccc2c(Cl)c3c(nc2c1)CCCC3`, the half-maximal inhibitory concentration (IC50) in assay [1] (setting [6]) lay in the range of 0.02 to 0.1 µM.

`CCc1c(-c2ccc3[nH]ncc3c2)cnc(N)c1-c1ccc(O)cc1` [GNE6640]: in assay [2], the “specificity for TP53-WT expressing cells” value was “little to no specificity for TP53-WT expressing cells”.

On to `Cc1ncc(Cl)cc1NCc1ccc(C(=O)N[C@@H](CC2CCCC2)C(=O)NC2CC2)s1` [GSK2830371], for which, in assay [3], the “interaction in combination with compound 6” value (“interaction in combination” for short) was “mixed synergy and antagonism”. The “combination index with compound 6” value in assay [4] is under 0.6.

Consider `COc1cc(C(=O)O)ccc1NC(=O)[C@@H]1N[C@@H](CC(C)(C)C)[C@](C#N)(c2ccc(Cl)cc2F)[C@H]1c1cccc(Cl)c1F` [RG7388], for which, in assay [4], the “combination index with compound 6” value is under 0.6.

For `C[C@@H]1NC(=O)N[C@@H]1CCCCCC(=O)NCCOCCOCCOCCC(=O)N1CCN(CC(=O)Nc2ccc3c(=O)n(CC4(O)CCN(C(=O)CCCCNC(=O)c5ccc6c(Cl)c7c(nc6c5)CCCC7)CC4)cnc3c2)CC1` [compound 6-DTB, 9-chloro-N-(5-(4-hydroxy-4-((7-(2-(4-(19-((4R,5S)-5-methyl-2-oxoimidazolidin-4-yl)-14-oxo-4,7,10-trioxa-13-azanonadecanoyl)piperazin-1-yl)acetamido)-4-oxoquinazolin-3(4H)-yl)methyl)piperidin-1-yl)-5-oxopentyl)-5,6,7,8-tetrahydroacridine-3-carboxamide], the USP7 inhibitory activity result in assay [1] (purified enzyme and native USP7) is given as “retained USP7 inhibitory activity”.

On to `CN1CCN(CCC(=O)Nc2ccc3c(=O)n(CC4(O)CCN(C(=O)C(CCCNC(=O)c5ccc6cc7c(nc6c5)CCCC7)Cc5ccccc5)CC4)cnc3c2)CC1` (stereo not shown) [compound 40, N-(4-benzyl-5-(4-hydroxy-4-((7-(3-(4-methylpiperazin-1-yl)propanamido)-4-oxoquinazolin-3(4H)-yl)methyl)piperidin-1-yl)-5-oxopentyl)-5,6,7,8-tetrahydroacridine-3-carboxamide], for which, in assay [1] (full-length USP7, Ub-AMC), the “IC50 against USP7 (range in words)” value is given as “nanomolar range”. For the same compound, the “labeling of USP7 catalytic domain by MS” value in assay [5] is on record as “unable to label the USP7 catalytic domain”.

For `COc1cccc2c1C(=O)c1c(O)c3c(c(O)c1C2=O)C[C@@](O)(C(=O)CO)C[C@@H]3O[C@H]1C[C@H](N)[C@H](O)[C@H](C)O1` [doxorubicin], the “interaction in combination” value in assay [3] was “mixed synergy and antagonism”. Also, in assay [4], the “combination index with compound 6” value is under 0.6.

In the case of `CN1CCN(CCC(=O)Nc2ccc3c(=O)n(CC4(O)CCN(C(=O)CCCCNC(=O)c5ccc6c(Cl)c7c(nc6c5)CCCC7)CC4)cnc3c2)CC1` [drawing 141], the IC50 in assay [1] (setting [7]) was in the range of 0.02 to 0.1 µM.

In the case of `CN1CCN(CCC(=O)Nc2ccc3c(=O)n(CC4(O)CCN(C(=O)[C@@H](CCCNC(=O)c5ccc6c(Cl)c7c(nc6c5)CCCC7)Cc5ccccc5)CC4)cnc3c2)CC1` [drawing 146], in assay [1] (setting [7]), the IC50 is under 0.02 µM.

Turning to `CN1CCN(CCC(=O)Nc2ccc3c(=O)n(CC4(O)CCN(C(=O)[C@H](CCCNC(=O)c5ccc6c(Cl)c7c(nc6c5)CCCC7)Cc5ccccc5)CC4)cnc3c2)CC1` [drawing 147], the IC50 in assay [1] (setting [7]) fell in the range of 0.1 to 1 µM.

Take `CN1CCN(CCC(=O)Nc2ccc3c(=O)n(CC4(O)CCN(C(=O)C(CCCNC(=O)c5ccc6cc7c(nc6c5)CCCC7)Cc5ccccc5)CC4)cnc3c2)CC1` (stereo not shown) [drawing 180]: the IC50 in assay [1] (Table 2, read-out: IC50 (μM), USP7 activity in USP7 assay) fell in the range of 0.1 to 1 µM.

As for `COc1cc([C@@H]2c3cc4c(cc3[C@@H](O[C@@H]3O[C@@H]5CO[C@@H](C)O[C@H]5[C@H](O)[C@H]3O)[C@H]3COC(=O)[C@H]23)OCO4)cc(OC)c1O` [etoposide], the “interaction in combination” value in assay [3] was “mixed synergy and antagonism”.
